Data as given in patent US11213536B2, “Acylated compounds for the treatment of ocular pathologies” (CONSEJO SUPERIOR DE INVESTIGACIONES CIENTÍFICAS, priority 2016, dated 2022).
Entries after “also recorded” stand apart in the source; their conditions may differ.

Legend:
[1] = test system: zebrafish larva (Danio rerio); test: Neuroprotection in PTZ-induced neurotoxicity model, AChE activity in zebrafish larvae; assay type: in vivo; settings: 5 dpf larvae, 10 μM, 5 mM PTZ for 6 hours
Protocol: The objective of this assay was to analyze the protective effect of compound 2 and of the resveratrol (RES) control in a model of neurotoxicity induced by the neurotoxin pentylenetetrazole (PTZ). As an experimental model, the zebrafish larva (Danio rerio) was used to study the effect of the compounds on acetylcholinesterase activity (AChE) in larvae at 5 days post-fertilization (dpf).
Zebrafish embryos were seeded in 50 ml of dilution water (AD) in a Petri dish and grown to 5 dpf (larval stage). […] Next, the larvae were transferred using a Pasteur pipette to a 24-well microplate, so that each well contained five larvae, making ten replicates per condition. First, the pre-treatment of the 5 dpf larvae was performed. […] After this incubation period, all of the larvae were examined, and it was determined that the general state of the larvae was totally normal, without any visible anomaly or anomalous behavior. […]
Determination of AChE levels. […] In addition, the determination of total protein of each experimental group was carried out according to the technical study protocol (Quantification of protein by BCA, as a normalization process). Finally, the AChE levels determined in the control group were taken as a reference measurement and deemed to be 100%.

rd10 mouse = test: rd10 mice retinal degeneration model, subretinal injection; assay type: in vivo; settings: 5 mM subretinal
Description: The rd10 mouse is a model of retinitis pigmentosa due to a mutation in the Pde6b gene that results in the degeneration of the photoreceptors that begins on postnatal day 15-16 (P15-16) and is completed within one month (P30). In this model, the degeneration begins in the rods and then continues with cones and finally the retinal pigment epithelium (RPE). The degeneration in this model occurs as a consequence of the loss of the function of Pde6b, which ultimately leads to a continuous entry of Ca^++ in the […] with a significant production of reactive oxygen species (ROS), infiltration of macrophages, and activation of pro-apoptotic proteins. At the histological level, a loss of nuclei is observed in the outer nuclear layer of the retina (the layer in which photoreceptor nuclei are located), as well as the loss of the specific markers of rods (rhodopsin) and cones (opsin). The electroretinogram (ERG), which measures the electrical response of the retina to visual stimuli, is markedly affected in rd10 mice, with progressive loss of the amplitude of the a- and b-waves of the ERG. […] To evaluate the protective effect of our compounds on the retina, we first used the rd10 model. Rd10 homozygous mice were injected in the subretinal space at P13 (two to three days before the onset of degeneration) with 1 μl of vehicle (5% DMSO in PBS) or resveratrol RES (5 mM), as well as compound 2 (5 mM). Then, 15 days after having been injected, fundus, ERG, and histological changes were evaluated in the untreated mice, those treated with the vehicle, and those treated with RES and compound 2. […] The ERG in the treated mice was also evaluated 15 days after the injections. The amplitude of the a- and b-waves in the ERGs were quantified, and the statistical analysis was performed using two-way ANOVA and post hoc DMS. A value of p<0.05 was considered significant. […] Finally, the immunofluorescence study was performed in order to observe the presence of markers of rods (rhodopsin) and cones (opsin) (FIG. 10). The number of photoreceptor nuclei present in the outer nuclear layer (ONL), as well as the immunostaining of rhodopsin, was much greater in rd10 mice treated with compound 2 than in those treated with RES and in the controls.

RAW 264.7 macrophages = test: Mitigation of LPS damage: RAW 264.7 macrophage viability (MTT); assay type: cell-based; settings: LPS 100 ng/ml, RES 10 μM, MTT 24 h
Protocol: RAW 264.7 macrophages were cultured in P75 with high-glucose DMEm supplemented with penicillin/streptomycin and 10% inactivated fetal bovine serum.
The cell viability assays with RAW macrophages were prepared in 96-well plates by seeding 25,000 cells/well in a volume of 100 μl and incubating the cells for 4 h before the addition of the compounds. The compounds to be tested were dissolved in DMSO and added in three different concentrations (1, 10 and 100 μM) in order to determine their toxicity. The final percentage of DMSO in each well was adjusted to 1%. The cell viability was evaluated 24 h after the addition of the compounds by means of the MTT assay according to the manufacturer's method. Mean values and standard deviations were calculated from at least 8 different measurements from several independent experiments.
Testing of mitigation of damage caused by the addition of LPS. The RAW 264.7 macrophages were cultured according to the procedure described above. […] The cell viability was evaluated 24 h after the addition of the compounds by means of the MTT assay according to the manufacturer's method. Mean values and standard deviations were calculated from at least 8 different measurements from several independent experiments.

CCCCCCCC(=O)OCC1OC(Oc2cc(O)cc(/C=C/c3ccc(O)cc3)c2)C(O)C(O)C1O [Compound 2, trans-resveratrol-3-O-(6′-O-octanoyl)-β-D-glucopyranoside]
AChE activity decrease induced by PTZ [1]: significantly prevents the decrease in AChE activity | amplitude of the a- and b-waves in ERG (rd10 mouse; 15 days): preserved in the group treated with compound 2 in a greater proportion | thickness of the outer nuclear layer (ONL) (rd10 mouse; 15 days): greater than in the group treated with RES | pigment accumulation in the fundus (rd10 mouse; 15 days after injection): absence of pigment; also recorded: lower amount of pigment accumulation | b-wave amplitude in dark-adapted ERG (rd10 mouse; 15 days, flash intensities 0.2, 1, 3 and 10 cd s/m^2): significantly increased; also recorded: significant increase | labeling of rhodopsin and opsin (rd10 mouse; 15 days, immunofluorescence): more intense | number of photoreceptor nuclei in the outer nuclear layer (ONL) and immunostaining of rhodopsin (rd10 mouse; 15 days, immunofluorescence): much greater

Oc1ccc(C=Cc2cc(O)cc(O)c2)cc1 [RES, resveratrol, reference compound]
recovery of cell viability (RAW 264.7 macrophages): up to 82%
